Where two headings read alike, the source gives them in different places.
How the values were obtained:
myocardial tissue = settings: acetylcholine 1 μM, cited from earlier work
[1] = oral pirenzepine 100-300 mg co-administered with donepezil, healthy volunteers
[2] = in vivo; cited from earlier work

Compound | suppression of the effect of acetylcholine (myocardial tissue; antagonist 1 μM) | further results
CN1[C@@H]2CC[C@H]1C[C@@H](OC(=O)C(CO)c1ccccc1)C2 (stereo partly drawn) [atropine] | completely abolished the effect of acetylcholine | –
CN1CCN(CC(=O)N2c3ccccc3C(=O)Nc3cccnc32)CC1 [pirenzepine, 11-[(4-methylpiperazin-1-yl)acetyl]-5,11-dihydro-6H-pyrido[2,3-b][1,4]benzodiazepin-6-one] | did not suppress the effect of acetylcholine | increase in the tolerated dose of donepezil [1]: enabling the safe increase in the dose of donepezil
O=C(O[C@H]1CN2CCC1CC2)N1CCc2ccccc2[C@@H]1c1ccccc1 [solifenacin] | – | effect on QTc [2]: increase in QTc
CCN(CC)CCCCC1CCN(CC(=O)N2c3ccccc3C(=O)Nc3cccnc32)CC1 [AQ-RA 741, 11-[[4-[4-(diethylamino)butyl]-1-piperidinyl]acetyl]-5,11-dihydro-6H-pyrido[2,3-b] [1,4]benzodiazepin-6-one] | partial suppression of the effect of acetylcholine | –
C[N+]1(C)CCC(OC(=O)C(c2ccccc2)c2ccccc2)CC1.[I-] [4DAMP, 4-[(Diphenylacetyl)oxy]-1,1-dimethylpiperidin-1-ium iodide] | – | suppression of the effect of acetylcholine (myocardial tissue; antagonist 0.1 μM): did not suppress the effect of acetylcholine
